Here are results for 88 compounds from a melting point compilation (Tetko et al.; mined from patent text by program, amines drawn as free bases though some values may be those of a salt).

Each structure is given as a SMILES string.

Compound `Cc1ccc(N(C)N=C(N)C(N)=O)cc1OCC(F)(F)C(F)(F)F` returned a melting point of 129 to 130 °C.

With `C[C@H](Cn1cccn1)NC(=O)c1c[nH]c2ncc(-c3nn(C)c4cc(F)ccc34)nc12`, the melting point was in the range of 252 to 253 °C.

For `Cc1ccc2cccc(OCc3c(Cl)ccc(OCCN)c3Cl)c2n1`, the melting point fell in the range of 123 to 125 °C.

In turn, `COc1ccc(N(c2nc(N)nc(NC3CC3)n2)C2CC2)cc1F` yielded a melting point of 91 to 92 °C.

As for `Nc1ccc(Cl)c(S(=O)c2ccccc2)c1` (stereo not drawn), the melting point is 152 to 155 °C.

`Cc1nccn1CC1CCc2c(c3ccccc3n2C)/C1=N/O` (stereo not drawn) came in with a melting point of 231 to 233 °C.

Compound `CC(=O)NC[C@H]1CN(c2ccc(C3CCOCC3)c(F)c2)C(=O)O1` yielded a melting point of 191 to 192 °C.

The compound `CCOC(=O)c1cc2c3ccccc3n(Cc3ccccc3)c2nc1N1CCCCC1` registered a melting point of 155 to 156 °C.

For `CCn1c(C)nc2cc(S(C)(=O)=O)ccc21`, the melting point fell in the range of 140 to 142 °C.

For `Clc1cccc(-c2n[nH]cc2-c2ccnc(NCCc3ccccc3)c2)c1`, the melting point was in the range of 185 to 186 °C.

The compound `COc1cc(-c2ccccc2F)c(Cl)cc1C(=O)N1Cc2ccc(C(=O)O)n2Cc2ccccc21` gave a melting point of 192 to 194 °C.

Turning to `CCOC(=O)COc1nccc(-c2ccccn2)n1`, the melting point fell in the range of 48 to 53 °C.

With `Cc1cc(CNC(=O)c2cc(-c3ccc(C(C)(C)C)cc3)nn2CCN2CCOCC2)ccc1OC(C)(C)C(=O)O`, the melting point is 140 °C.

In the case of `NC(=O)CON=c1c2nccc3cccc(c32)n2cccc12`, the melting point stood at 252 °C.

Turning to `COc1ccc(-c2cc3n(n2)C(=O)c2ccccc2-3)cc1`, the melting point lay within 180 to 181 °C.

Regarding `Nc1nc(NCCOc2ccccc2)nc(-c2cc(Cl)ccc2Cl)n1`, the melting point was 172 to 173 °C.

As for `COC(=O)C(c1ccc(NC(C)=O)cc1)C1CC1` (stereo not drawn), the melting point was in the range of 159 to 162 °C.

`COc1cc(C(C)=O)ccc1OCCCN1CCC(c2noc3ccccc23)CC1` yielded a melting point of 102 to 104 °C.

With `CCCCn1c(C=O)cnc1Cc1c(F)cccc1Cl`, the melting point lay in the range of 88 to 90 °C.

Turning to `O=[N+]([O-])c1cc(Sc2ccc(Cl)cc2)[nH]c1-c1ccc(Cl)cc1`, the melting point lay in the range of 195 to 197 °C.

In turn, `CC(C)(CO)NS(=O)(=O)c1ccc(Cl)s1` returned a melting point of 112 °C.

`O=C(O)c1ccc2c(c1)S(=O)c1ccccc1CC2` (stereo not drawn) showed a melting point of 261 to 265 °C.

Regarding `CC(C)c1nc(CO)n(Cc2ccc([N+](=O)[O-])cc2)c1Sc1cc(Cl)cc(Cl)c1`, the melting point lay within 192 to 194 °C.

As to `CN(C)CC1CCCN(c2cc3ccccc3c(=O)[nH]2)C1` (stereo not drawn), the melting point was in the range of 141 to 143 °C.

For the compound `O=c1c(NCCCOc2cccc(CN3CCCCC3)c2)c(NCc2cccnc2)c1=O`, the melting point is 174 to 178 °C.

`O=[N+]([O-])c1ccc(Nc2cccc(C(F)(F)C(F)(F)C(F)(F)C(F)(F)C(F)(F)C(F)(F)C(F)(F)C(F)(F)F)c2)c([N+](=O)[O-])c1` gave a melting point of 124 to 125 °C.

The compound `COc1ccc(/C=C/C(=O)Nc2ccccc2C(=O)O)cc1OC1CCCC1` displayed a melting point of 211 to 217 °C.

In turn, `CN1CCSC1=NC(=Nc1ccc(Cl)cc1)N1CCCC1` had a melting point of 124 to 127 °C.

As to `N#CC(C#N)C(=O)c1ccsc1`, the melting point fell in the range of 132 to 133 °C.

Take `CCOC(=O)C(C)(C)OC(=O)c1cc(-n2c(=O)cc(C(F)(F)C(F)(F)F)[nH]c2=O)ccc1Cl`: the melting point lay in the range of 141 to 143 °C.

Regarding `CC(C)(C)C(O)(C=Cc1ccc(C2OCCO2)cc1)Cn1cncn1` (stereo not drawn), the melting point was found to be 110 °C.

`COC1(c2cccc(OCc3ccc4ccccc4c3)c2)CCN(CC#N)C1` (stereo not drawn) showed a melting point of 76 to 77 °C.

Compound `COc1ccc(C2=NOC(CN=C=S)C2)cc1` (stereo not drawn) gave a melting point of 92 to 94 °C.

Turning to `Cc1ccc(-c2cc(F)c(F)cc2-c2ccc(S(C)(=O)=O)cc2)cn1`, the melting point lay in the range of 141 to 142 °C.

As for `CC(=O)OCC1OC(OS(C)(=O)=S)C(OC(C)=O)C(OC(C)=O)C1OC(C)=O` (stereo not drawn), the melting point was in the range of 118 to 119 °C.

Compound `O=C(c1ccc(C(F)(F)F)cc1Sc1ccccc1)c1cnoc1C1CC1` registered a melting point of 115 °C.

Compound `CCOC(=O)c1cc(-n2c(=O)cc[nH]c2=O)ccc1Cl` came in with a melting point of 170 to 172 °C.

Consider `Oc1cc2c(cc1O)CN(c1ncnc3c(N4CCOCC4)nc(Cl)nc13)CC2`, for which the melting point is 187 to 189 °C.

Turning to `CC(C)(O)CC(=O)c1cc(C(C)(C)C)c(O)c(C(C)(C)C)c1`, the melting point was 113 to 114 °C.

The compound `NS(=O)(=O)c1cc2cc(C=O)sc2s1` had a melting point of 188 to 189 °C.

In turn, `O=C1NCC2CC1c1ccccc12` (stereo not drawn) displayed a melting point of 172 to 173 °C.

`Cc1ccc(NC(=S)Nc2cccc3c2C2CCCCN2C3=O)nc1` (stereo not drawn): the melting point amounted to 232 °C.

For `CC(C)(O)COc1c(-c2ccc(S(N)(=O)=O)cc2)cnn(-c2ccc(F)c(Cl)c2)c1=O`, the melting point is 176 to 178 °C.

`CN(C(N)=O)C1c2ccccc2Oc2ccccc21` showed a melting point of 199 to 202 °C.

Take `CN(Cc1ccc([N+](=O)[O-])cc1)C1CCN(c2ccc(NS(C)(=O)=O)cc2)CC1`: the melting point fell in the range of 167 to 168 °C.

As to `CCCCOCCOc1ccc(-c2cc(/C=C(\C)C(=O)O)c3c(c2)CCCN3C)cc1`, the melting point was 133 to 134 °C.

On to `CCCN1CCC(c2ccccc2)=C(C(=O)NCC)C1`, for which the melting point is 80 to 83 °C.

Compound `CN(C)c1nc2sc3c(NCc4ccco4)ncnc3c2c2c1CCC2(C)C` had a melting point of 89.3 to 91 °C.

`CCOc1cc(-c2nnc3c4ccccc4c(OCc4ncnn4C)nn23)no1`: the melting point was 223 to 225 °C.

For the compound `COc1ccc2[nH]c(SCc3ncc(C)c(N(C)C)c3Cl)nc2c1`, the melting point is 109 to 110 °C.

`CCOC(=O)c1c(-c2ccccc2)c2c3ccccc3ccn2c1C(C)C` had a melting point of 82 to 84 °C.

Take `CC(=O)NNC(=O)c1ccc(Br)c(C)c1`: the melting point lay in the range of 186 to 187 °C.

For the compound `CC(C)(NC(=O)CCNC(=O)OCc1ccccc1)c1ccccc1`, the melting point was in the range of 96 to 97 °C.

In turn, `CC(C)(C)OC(=O)NC1Cc2cccc(c2)CC(C(=O)O)NC(=O)CNC1=O` (stereo not drawn) registered a melting point of over 250 °C.

`Cc1cccc(CSCCNC(=O)c2c(Cl)cccc2Cl)c1` showed a melting point of 56 to 57 °C.

Compound `CCn1c(C(=O)OC)c(-c2ccc(OC)c(OC)c2)c2cc(OC)c(OC)cc21` had a melting point of 191 to 192 °C.

In the case of `N#Cc1ccc(-c2n[nH]cc2C(F)(F)F)cc1SCC(F)(F)F`, the melting point is 90 to 91 °C.

As for `Cc1ccc(-n2nc(C(C)(C)C)cc2NC(=O)Nc2ccc(-c3cnc4c(c3)NC(=O)CO4)c3ccccc23)cc1`, the melting point was over 200 °C.

Turning to `CNC(=O)[C@@H](C[C@H](O)[C@H](CC(C)C)NC(=O)OC(C)(C)C)C(C)(C)O`, the melting point is 121 to 123 °C.

Take `CC(C)Oc1ccc(-c2nn(C(C)c3oc4cccc(N5CCOCC5)c4c(=O)c3-c3ccccc3)c3ncnc(N)c23)cc1F` (stereo not drawn): the melting point is 211 to 214 °C.

`O=S1(=O)N=CNc2ccc(F)cc21` registered a melting point of 260 to 263 °C.

As to `O=C(O)C1=C(c2cccs2)c2cc(Cl)ccc2OC1C(F)(F)F` (stereo not drawn), the melting point lay within 201 to 207 °C.

As to `CN(C)CCNC(=O)c1ccc(C(Cc2ccc(F)cc2)C(=O)Nc2nc3ccccc3o2)cc1` (stereo not drawn), the melting point fell in the range of 149 to 151 °C.

Compound `COC(=O)NCc1ccc2ccn(C3CCN(CCc4ccc(F)cc4)CC3)c2c1` came in with a melting point of 117 to 118 °C.

As for `CC(c1ccc(F)cc1)N1CCC(n2cnc3ccccc3c2=O)CC1` (stereo not drawn), the melting point is 179 to 180 °C.

As to `CCCCCC/C=C/CCCCCCCC(=O)Nc1nc(CC(=O)O)cs1`, the melting point lay within 117 to 118 °C.

With `O=C(c1ccccc1)c1ccc2sc(NCCO)nc2c1`, the melting point came to 159 °C.

As to `CCc1cccc2c(C(=O)c3cccc(Cl)c3Cl)c(C)n(CCCS(=O)(=O)N(C)C)c12`, the melting point came out at 18 °C.

The compound `NC(=O)CNC(=O)c1cccc(-c2cccc3oc(Cc4ccc(F)c(Cl)c4)cc23)c1` yielded a melting point of 155 to 156 °C.

`O=C1Nc2cccnc2N(C(=O)N2CCCC(CCCN3CCCCC3)C2)c2ccccc21` (stereo not drawn) gave a melting point of 123 to 125 °C.

`OCc1cn(-c2ccccc2)nc1OCc1ccccc1` registered a melting point of 93 to 94 °C.

`Cc1ccc(-c2cccc(C#N)c2)cc1` displayed a melting point of 59 to 61 °C.

The compound `CC(C)(N)c1ccc(-c2nc(Nc3cccc(CCN4CCOCC4)c3)ncc2C#N)cc1` displayed a melting point of 166 to 167 °C.

The compound `CC(c1c[nH]cn1)c1cccc(C(=N)N)c1O` (stereo not drawn) came in with a melting point of 191 °C.

With `O=C(Cc1ccccc1O)N1C[C@@H]2SCCC(c3ccccc3)(c3ccccc3)[C@@H]2C1` (racemic), the melting point was determined as 248 °C.

`CC(C)(C)OC(=O)NCC1Cc2ccc(CC(=O)O)cc2C1` (stereo not drawn): the melting point is 123 to 124 °C.

In the case of `CN1CCN(C2=Nc3ccccc3Sc3nccn32)CC1`, the melting point lay within 145 to 147 °C.

For the compound `Cn1cnc(COc2nn3c(-c4ccccc4)nnc3c(Cl)c2N2CCCC2)n1`, the melting point lay within 198 to 199 °C.

As to `CS(=O)(=O)Nc1c(CC(=O)O)cccc1Oc1ccccc1Cl`, the melting point was 159 to 163 °C.

The compound `COCCN(C)Cc1ccc(NC(=O)C#Cc2ccc(-c3ccc(Cl)cc3)cc2)cc1` came in with a melting point of 130 to 133 °C.

Compound `Cc1ccc2c(c1)[nH]c(=O)n2CCCl` displayed a melting point of 120 °C.

Take `O=C1COc2cccc3nc4c(c(c23)N1Cc1ccccc1)CCCC4`: the melting point is 166 to 168 °C.

`CCC(CC)N(O)C(=O)Nc1ccc(Oc2ccccc2)cc1` returned a melting point of 124 to 125 °C.

In the case of `CC(C)CCNC(=O)c1ccccc1-c1ccccc1CNC(=O)OCc1ccccc1`, the melting point was found to be 112 °C.

For `CN1C(=O)C2(CCNCC2)c2ccccc21`, the melting point fell in the range of 146 to 151 °C.

`O=C(c1ccccc1)c1cc2c(s1)S(=O)(=O)CCc1cc(=O)n(-c3ccc(Cl)cc3)nc1-2` gave a melting point of 254 to 256 °C.

Compound `COc1cc(OC)c2c(=O)[nH]c(-c3cc(C)c(OCCO)c(C)c3)cc2c1` yielded a melting point of 193 to 195 °C.

`CN(C)CC(=O)NCc1cccc(-c2csc(N=C(N)N)n2)n1` gave a melting point of 199 °C.

For orientation: melting point means the temperature of the solid-liquid transition.
